Key:
Assay type in all cases: cell-based
[1] = test system: HCT-116, NCI-H460, SUM149PT, MDA-MB-436 cells; test: Combination viability assay (CTG, Bliss synergy); settings: HRP (HCT-116, NCI-H460) and HRD (SUM149PT, MDA-MB-436) cells, 7 days
Protocol: (§1) For combination analysis, cells were seeded in 70 μl of media in 384-well plates pre-dosed with compounds (5-point dose–response matrix) with a D300e digital dispenser (Tecan). Cell proliferation was determined after 7 days using CTG. Analysis was performed with Genedata Screener (Compound Synergy Extension) to determine Synergy scores (Bliss model), using a formulation whereby the Blissexcess is a continuous value and values higher than 2 are usually considered synergistic, and values between 0 and 2 are usually considered additive.

[2] = test system: DLD-1 WT cells; test: Combination viability assay (CTG, Bliss synergy); settings: 7 days
Protocol: as §1

[3] = test system: DLD-1 BRCA2KO cells; test: Combination viability assay (CTG, Bliss synergy); settings: 7 days
Protocol: For combination analysis, cells were seeded in 70 μl of media in 384-well plates pre-dosed with compounds (5-point dose–response matrix) with a D300e digital dispenser (Tecan). Cell proliferation was determined after 7 days using CTG.

[4] = test system: RD-ES cells; test: Combination viability assay (CTG, Bliss synergy); settings: 7 days
[5] = test system: SUM149PT 53BP1KO and SHLD2KO cells; test: Combination viability assay (CTG, Bliss synergy); settings: SUM149PT with 53BP1 or SHLD2 genetically ablated, 7 days
Protocol: as §1

[6] = test system: SUM149PT 53BP1KO and SHLD2KO cells; test: Cell viability assay (CTG), 7 days, PARP inhibitor resistant models; settings: less sensitive than parental
Protocol: Cells were seeded in 150 μl of media in 96-well plates or in 70 μl of media in 384-well plates pre-dosed with compounds (8–10 points dose response) with a D300e digital dispenser (Tecan) and incubated for 24 h at 37°C and 5% CO2. Cell proliferation at the end of the assay (7 days) was measured using CTG (Promega, G9243). CTG luminescence was normalized to vehicle treated control for each cell line, and data were fitted with a nonlinear regression curve (four parameters) to generate compound sensitivity curves and determine IC50 or EC50 (half maximal inhibitory/effective concentration) values as indicated.

Compound: COc1ncnc(C2CC2)c1-c1ncc2cnn(Cc3ccc(-c4nc(C(F)(F)F)cn4C(C)C)cc3)c2n1 [KSQ-4279]
- Combination benefit with MSC778 [1]: particularly strong

Compound: Cc1nc(C)c(Cn2c(=O)n(-c3ncns3)c3cc(S(=O)(=O)NC4(C)CC4)ccc32)s1 [PDD00017238]
- Combination effect with MSC778 [2]: Synergistic
- Combination benefit with MSC778 [1]: particularly strong

Compound: Cn1cncc1-c1c(F)cncc1NC(=O)c1c(N)nn2cc(F)cnc12 [Tuvusertib]
- Combination effect with MSC778 [3]: at best weakly additive

Compound: NC(=O)c1cccc2cn(-c3ccc([C@@H]4CCCNC4)cc3)nc12 [niraparib]
- Combination effect with MSC778 [4]: combination benefit

Compound: O=C(c1cc(Cc2n[nH]c(=O)c3ccccc23)ccc1F)N1CCN(C(=O)C2CC2)CC1 [olaparib]
- Combination effect with MSC778 [5]: synergized
- Combination effect with MSC778 [4]: combination benefit

Compound: Cn1ncnc1[C@H]1c2n[nH]c(=O)c3cc(F)cc(c23)N[C@@H]1c1ccc(F)cc1 [talazoparib, reference compound]
- Change in sensitivity of SUM149PT 53BP1KO and SHLD2KO cells versus parental cells [6]: ~20 fold
- Combination effect with MSC778 [5]: synergized

Compound: C[C@]1(c2nc3c(C(N)=O)cccc3[nH]2)CCCN1 [veliparib]
- Combination effect with MSC778 [4]: combination benefit

Compound: PDD00017273
- Combination effect with MSC778 [2]: Synergistic
- Combination effect with MSC778 [4]: limited to additivity

Reference: PMC12684391, “Mechanistic insights into the monotherapy and combination potential of FEN1 inhibition in cancer therapy” (Nucleic Acids Research, 2025)
